Measured values from patent publication US20060234960A1, “Methods and compositions for increasing the safety and efficacy of albumin-binding drugs” (priority 2005, published 2006).

Columns and labels:
[1] = whole human blood; cited from earlier work
brain cancer = details: cited from earlier work
[2] = murine vs human blood; cited from earlier work
human serum albumin [3] = target: T1, human serum albumin (Homo sapiens, UniProt P02768)
Text: Salus™ Drug Combinatorial Agents were identified using the CADEX knowledge base.

[4] = test system: human MRC-5 lung fibroblast cell line; test: IC50 in human MRC-5 lung fibroblast cell line (in vitro toxicity); assay type: cell-based; details: best case scenario
Text: Therapeutic index is defined as the ratio of the median lethal dose (LD50) to the median effective dose (ED50). […] While animal tests are at best only about 65 percent predictive of human acute toxicity, a combination of four cell tests can determine of a substance is dangerous to humans with better than 80 percent precision.
(§1) We have decided to use the human MRC-5 lung fibroblast cell line to test IC50 of 10-hydroxycamptothecin (10-HC) in the absence and presence of Salus™ 301. The ED50 values were determined with human MDA-MB-435S breast carcinoma cell line.

[5] = test system: human MDA-MB-435S breast carcinoma cell line; test: Cytotoxicity for breast cancer cells (MDA-MB-435S), XTT; assay type: cell-based; details: for ability to kill breast cancer cells in the presence of Salus (301): FIGS. 9-13, with vs without Salus agent
Method: To further validate the concept in vitro studies using human breast cell carcinoma line and clinically approved blood concentrations of both clofibrate (301) and 10-hydroxycamptothecin were performed. FIG. 9 graphs the results GI 50 below. […] Additionally at clinically approved concentrations of both drugs in the presence of blood concentrations of human serum albumin, without Salus, approximately 33% of the cells were surviving at the end of the test vs. approximately 2%.
as §1
Cytotoxicity of DRUG for Breast Cancer Cells (MDA-MB-435S)
• 1. Count number of cells in flask. The final concentration of cells in each well should be between 5000-40000 cells/well (100,000-800,000 cells/ml). Dilute cells to proper concentration using Leibovitz's L-15 supplemented with 10% FBS and 0.1% insulin. Add 100 μl of cells into the microplate using repeating pipette. Be sure to vortex tube before adding to plate. Allow plate to incubate for 24 hours at 37° C. (Note: wells A1-H1, A1-H11 will contain only medium for evaporation purposes. Well A2 will contain no cells, only medium and will be used in experiment.) • Medium: Leibovitz's L-15 medium. • 2. Albumin: • Make 60 mg/ml in HSA (900 mg HSA+13.3 ml medium). Use Sigma HSA A-8763 • Make 5 ml of 60 mg/ml HSA with 2 mM 301 (2.33 mg 301 for 5.4 ml HSA). • Make 1 ml of 2 mM 301 in medium (0.53 mg in 1.23 ml medium). Dilute 200 μl in 200 μl medium to make 1 mM 301. • Make DRUG stock in DMSO Stock molarity=1000× conc. of highest test sample (ex. if 2 μM is needed, then stock needs to be 2 mM.) This will vary with each drug based on dosage of drug. For Cancer Cells, the highest concentration should be 1-2 times greater than the dosage for the drug. • 3. Make the test concentrations in advance of testing (5-24 hours prior to testing): The test concentrations will be made at double the concentration, 100 μl will be added into the 100 μl of the cells, making the final concentrations the same as those shown on the microplate chart. Change medium in plate (using the L-15 supplemented with 10% FBS and 0.1% insulin prior to loading test concentrations. • 100% cells: 100 μl of medium • medium: 100 μl of medium • 0.5 mM 301: add 100 μl of 1 mM 301 made in medium • 0.5 mM 301 with HSA: add 100 μl of 1 mM 301 with 30 mg/ml HSA • 1 mM 301: add 100 μl of 2 mM 301 made in medium • 1 mM 301 with HSA: add 100 μl of 2 mM 301 with 30 mg/ml HSA • 30 mg/ml HSA: add 100 μl of 60 mg/ml HSA made in medium (2 wells) • Dosage of DRUG: make a 1:500 dilution, using medium as the diluent. Make 2-fold serial dilutions into 300 μl of medium (600 μl total volume). Be sure to make dilutions before adding into wells. • 30×HSA & Dosage DRUG: Follow same serial dilution procedure as above with the DRUG, but the diluent should be medium +60 mg/ml HSA • 30×HSA, 0.5 mM 301 & DRUG: Follow same serial dilution procedure as above with the DRUG, but the diluent should be medium +60 mg/ml HSA with 1 mM 301 • 30×HSA, 1 mM 301 & 2 μM DRUG: Follow same serial dilution procedure as above with the DRUG, but the diluent should be medium +60 mg/ml HSA with 2 mM 301. • Allow these to incubate at 37° C. overnight. After the microplate has been incubating for 24 hours, add the above test concentrations into the appropriate well (see Chart for microplate information). Allow plate to incubate an additional 48 hours. After 48 Hours: • 4. Under sterile hood, reconstitute the XTT vial with 5 ml of medium. • 5. Remove all liquid from wells. Wash with medium, remove, then fill wells with 200 μl of fresh medium. • 6. Add 40 μl of XTT to all wells. • 7. Allow wells to incubate 2 hours. • 8. Read the plate in the microplate reader using a 655 nm reading as a reference wavelength. The read at 450 nm. Subtract the 655 nm reading from the 450 reading. […]

human serum albumin [6] = target: T1, human serum albumin; test: X-ray structure of human serum albumin complexes (binding site); details: X-ray crystallography
[7] = test system: human cancer xenografts lines; details: immunodeficient (nude) mice; cited from earlier work
human serum albumin [8] = target: T1, human serum albumin; details: carboxylate vs lactone form; cited from earlier work
human serum albumin [9] = target: T1, human serum albumin; details: Topotecan alone, comparison for Camptothecin with Salus agent; cited from earlier work

T1 sequence (P02768 25-609): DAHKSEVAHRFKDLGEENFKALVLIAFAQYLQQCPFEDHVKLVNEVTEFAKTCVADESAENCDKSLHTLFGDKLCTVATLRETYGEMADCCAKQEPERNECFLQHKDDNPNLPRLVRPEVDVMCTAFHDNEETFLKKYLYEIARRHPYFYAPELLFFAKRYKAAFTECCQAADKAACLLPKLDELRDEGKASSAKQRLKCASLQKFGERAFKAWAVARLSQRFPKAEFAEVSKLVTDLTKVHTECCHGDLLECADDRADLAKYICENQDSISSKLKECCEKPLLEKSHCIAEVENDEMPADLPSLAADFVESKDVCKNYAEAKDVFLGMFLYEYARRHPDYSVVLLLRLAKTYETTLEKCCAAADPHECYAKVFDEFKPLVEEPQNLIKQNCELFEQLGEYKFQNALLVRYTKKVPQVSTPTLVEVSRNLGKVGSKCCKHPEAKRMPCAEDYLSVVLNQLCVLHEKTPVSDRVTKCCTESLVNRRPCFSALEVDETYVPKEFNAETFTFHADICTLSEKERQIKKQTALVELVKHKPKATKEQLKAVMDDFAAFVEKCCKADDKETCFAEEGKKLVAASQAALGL

CC[C@@]1(O)C(=O)OCc2c1cc1n(c2=O)Cc2cc3c(N)cccc3nc2-1 [9-aminocamptothecin]
drug remaining in the lactone form at equilibrium [1]: 0.5% | efficacy of therapy (brain cancer; 99 brain cancer patients, intravenous): grossly ineffective | drug in the carboxylate form (brain cancer; patients treated intravenously, stated as likelihood): 99.5% | lactone levels in murine blood relative to human blood [2]: approximately 100 fold

CC[C@@]1(O)C(=O)OCc2c1cc1n(c2=O)Cc2cc3c([N+](=O)[O-])cccc3nc2-1 [9-nitro-Camptothecin]
increase of active lactone form with the selected Salus agent (human serum albumin [3]): Equally dramatic results

CC[C@@]1(O)C(=O)OCc2c1cc1n(c2=O)Cc2cc3cc(O)ccc3nc2-1 [10-HC, 10-hydroxycamptothecin]
IC50 ([4]; with 0.5 mM 301): 6 µM | IC50 ([4]; with 1.0 mM 301): 3.3 µM | IC50 ([4]; without 301): 6.78 µM | ability to kill breast cancer cells in the presence of Salus (301) [5]: improvement | cells surviving at the end of the test ([5]; with Salus (clofibrate, 301), clinically approved concentrations of both drugs, blood concentrations of human serum albumin): approximately 2% | improvement in the GI 50 values ([5]; with clofibrate (301) vs without, blood concentrations of human serum albumin): approximately 16 fold | cells surviving at the end of the test ([5]; without Salus, clinically approved concentration, blood concentrations of human serum albumin): approximately 33% | increase of active lactone form with the selected Salus agent (human serum albumin [3]): Equally dramatic results

CC[C@@]1(O)C(=O)OCc2c1cc1n(c2=O)Cc2cc3ccccc3nc2-1 [Camptothecin]
drug remaining in the lactone form at equilibrium [1]: 5.3% | binding location on human serum albumin (human serum albumin [6]): distinct pocket within IB subdomain | number of human cancer xenografts lines in which effective [7]: more than 13 | enhancement in affinity for HSA of carboxylate form over lactone form (human serum albumin [8]): 150 fold

COc1cccc2c1C(=O)c1c(O)c3c(c(O)c1C2=O)C[C@@](O)(C(=O)CO)C[C@@H]3O[C@H]1C[C@H](N)[C@H](O)[C@H](C)O1 [Doxorubicin]
ability to kill breast cancer cells in the presence of Salus (301) [5]: improvement

COc1cccc2c1C(=O)c1c(O)c3c(c(O)c1C2=O)C[C@@](O)(C(=O)CO)C[C@@H]3O[C@H]1C[C@H](N)[C@@H](O)[C@H](C)O1 [Epirubicin]
ability to kill breast cancer cells in the presence of Salus (301) [5]: improvement

CCc1c2c(nc3ccc(O)cc13)-c1cc3c(c(=O)n1C2)COC(=O)[C@]3(O)CC [SN-38]
drug remaining in the lactone form at equilibrium [1]: 19.5%

COc1cc([C@@H]2c3cc4c(cc3[C@@H](O[C@@H]3O[C@@H]5CO[C@@H](c6cccs6)O[C@H]5[C@H](O)[C@H]3O)[C@H]3COC(=O)[C@H]23)OCO4)cc(OC)c1O [Teniposide]
ability to kill breast cancer cells in the presence of Salus (301) [5]: improvement

CC[C@@]1(O)C(=O)OCc2c1cc1n(c2=O)Cc2cc3c(CN(C)C)c(O)ccc3nc2-1 [Topotecan]
drug remaining in the lactone form at equilibrium [1]: 11.9% | level of active lactone form (comparison value) (human serum albumin [9]): 12% | ability to kill breast cancer cells in the presence of Salus (301) [5]: improvement
